Reference: patent EP4772530A1, “PEPTIDE TARGETING SOMATOSTATIN RECEPTOR, DRUG CONJUGATE AND USE THEREOF” (Mainline Biosciences (Shanghai) Co., Ltd., priority 2023, dated 2025)

Legend:
Format in all cases: cell-based
[1] = system: HL-60; experiment: Cell killing in HL-60 by CCK-8; settings: HL-60, 48 h
Protocol: • a) Cell line: HL-60 • b) Procedure • (1) Normally cultured HL-60 cells in the logarithmic growth phase were centrifuged at 800 rpm for 5 min to discard the supernatant. Approximately 3 mL of normal medium was added to resuspend the cell pellet by gently pipetting up and down. The cells were then counted using a cell counter and inoculated onto a 96-well plate. • (2) Sample solutions with different concentration gradients were prepared. Approximately 10 µL of each solution was added to the 96-well plate, with 3 to 6 replicate wells for each concentration, and incubated in a 5% CO2 incubator at 37°C for 48 h. • (3) CCK-8 was equilibrated to room temperature before use, and 10 µL of CCK-8 solution was added to each well. • (4) The plate was incubated in the incubator for 0.5-4 h in the dark, with the incubation time depending on experimental conditions such as cell type and density. • (5) The absorbance was measured at 450 nm using a microplate reader. • c) Data analysis Cell viability = [(As−Ab)/(Ac−Ab)] × 100% [formula] Inhibition% = [(Ac−As)/(Ac−Ab)] × 100% [formula] • As: absorbance of sample well (containing cells + medium + CCK-8 solution + drug solution); • Ac: absorbance of control well (containing cells + medium + CCK-8 solution); • Ab: absorbance of blank well (containing medium + CCK-8 solution); • The results were processed and analyzed using Excel and Graphpad Prism to obtain the IC50. Table 4: Test Results of Cell Killing in HL-60 for 48 h

[2] = target: T1, SSTR2 (Homo sapiens, UniProt P30874); experiment: SSTR2 cAMP test; settings: Max Dose 50000 nM
T1 construct: expressed in transfected cells; host or cells: CHO cells (SSTR2/CHO)
T1 sequence (P30874 whole entry): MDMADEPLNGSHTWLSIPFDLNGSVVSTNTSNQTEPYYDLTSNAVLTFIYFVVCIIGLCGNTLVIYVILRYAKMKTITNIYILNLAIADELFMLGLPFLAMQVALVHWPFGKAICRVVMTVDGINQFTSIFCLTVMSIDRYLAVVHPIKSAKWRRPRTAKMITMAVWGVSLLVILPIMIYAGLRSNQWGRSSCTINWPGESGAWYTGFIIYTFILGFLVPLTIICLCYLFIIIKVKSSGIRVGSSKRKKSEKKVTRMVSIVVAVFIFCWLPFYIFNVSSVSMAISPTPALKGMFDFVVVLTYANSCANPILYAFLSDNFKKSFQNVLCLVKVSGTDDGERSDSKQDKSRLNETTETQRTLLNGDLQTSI
Summary of the method: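 SSTR2-expressing CHO cells were stimulated with forskolin (100 µM stock) in the presence of 10 compound concentrations from 4-fold dilutions. cAMP detected as the 665/615 nm ratio, normalised to high and low controls. EC50 from log(agonist) vs. response variable-slope fit.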

[3] = system: NCI-H69; experiment: Cell killing in NCI-H69 by CGT (CellTiter-Glo); settings: NCI-H69, 96 h; Inh% relative to DMSO control, 4-parameter fit
Protocol: Approximately 5 µL of the PDC was added to the corresponding wells of the plate, and compared with DMSO (control, without the PDC of the present application), PTX, MMAE, and Dxd wells. The final concentration of DMSO in each well was 0.2%; • (5) The cells were incubated in a 5% CO2 incubator at 37°C for 96 h; • (6) The cell culture plate was equilibrated to room temperature, and 50 µL of CellTiter-Glo® Reagent was added to each well; • (7) The plate was placed on a shaker for 2 min to ensure complete cell lysis; • (8) After mixing, the plate was placed at room temperature to react for 10 min. The fluorescence value (in RLU) was read when the signal became stable. • c) Data analysis • (1) The inhibition (Inh %) relative to the DMSO control was calculated as follows: Inhibition (Inh%)= 100 -(RLU of compound - RLU of DMSO control)/ (RLU of DMSO control - RLU of blank)*100% • (2) The data were analyzed using Graphpad 5.0 software. A 4-parameter equation was fitted to generate a concentration-response curve to obtain the IC50. Table 3: Test Results of Cell Killing in NCI-H69

CC[C@H](C)[C@@H]([C@@H](CC(=O)N1CCC[C@H]1[C@H](OC)[C@@H](C)C(=O)N[C@H](C)[C@@H](O)c1ccccc1)OC)N(C)C(=O)[C@@H](NC(=O)[C@H](C(C)C)N(C)C(=O)OCc1ccc(NC(=O)[C@H](CCCNC(N)=O)NC(=O)[C@@H](NC(=O)CCCCCN2C(=O)CC(SC[C@H](NC(C)=O)C(=O)NCCOCCOCC(=O)N[C@@H](CCCNC(=N)N)C(=O)N[C@@H](CCCNC(=N)N)C(=O)N[C@@H](CC(C)C)C(=O)N[C@@H](Cc3ccccc3)C(=O)N[C@H]3CSSC[C@@H](C(=O)N[C@H](C(=O)N[C@@H](Cc4c[nH]c5ccccc45)C(=O)N[C@@H](CCCNC(=N)N)C(=O)N[C@@H](CC(=O)O)C(N)=O)[C@@H](C)O)NC(=O)[C@H]([C@@H](C)O)NC(=O)[C@H](CCCCN)NC(=O)[C@@H](Cc4c[nH]c5ccccc45)NC(=O)[C@H](Cc4ccc(O)cc4)NC3=O)C2=O)C(C)C)cc1)C(C)C (stereo partly drawn) [Example 1, Cys(MC-Val-Cit-PABC-MMAE)-AEEA-Arg-Arg-Leu-Phe-[Cys-Tyr-D-Trp-Lys-Thr-Cys]-Thr-Trp-Arg-Asp-NH2]
Bottom (Inhibition at Lowest Point) [1]: 1.71 | Top (Inhibition at Highest Point) [1]: 86.42 | activity at 50 µM [2]: 93.9% | Bottom (Inhibition at Lowest Point) [3]: 2.17 | Top (Inhibition at Highest Point) [3]: 79.37
